According to patent publication US20050084914A1, “Assays with primary cells” (priority 2003, published 2005):

What was measured:
[1] = system: primary human renal proximal tubule epithelial (HRPTE) cells; test: proliferative response of primary HRPTE cells (S-phase index); format: cell-based; conditions: HRPTE cells in 96-well microplate wells or on coded carriers; various concentrations
Experimental: This example describes how multiplexed analysis using coded carriers may be used to assay the effects of camptothecin on the proliferative response of primary human renal proximal tubule epithelial (HRPTE) cells, in accordance with aspects of the present teachings; see FIG. 6.
Specifically, HRPTE cells are grown directly in wells of a standard 96-well microplate, to three different cell densities (indicated as the stated number of cells), or on coded carriers that optionally may be placed in wells of the microplate. An “S-phase index” (e.g., the fraction of cells in the S-phase of the cell cycle) is used as a measure of cell proliferation. […] This reduction may be particularly significant in assays on primary cells, because primary cells typically are difficult to obtain and maintain.

HRPTE cells = test: cytotoxicity response of HRPTE cells (death index, live/dead assay); format: cell-based, human; conditions: HRPTE cells in 96-well microplate wells or on coded carriers; various concentrations
Experimental: This example describes how multiplexed analysis using coded carriers may be used to study the cytotoxicity response of HRPTE cells to staurosporine, in accordance with aspects of the present teachings; see FIG. 7.
Specifically, HRPTE cells are grown directly attached to wells of a standard 96-well microplate, or on coded carriers that optionally may be placed in wells of the microplate. A “death index” (e.g., the fraction of observed cells that are dead) may be used as a measure of cytotoxicity. The death index may be computed using any suitable mechanism, such as a fluorescence-based “live/dead assay.” In an exemplary version of the assay, live cells are labeled green using a membrane-permeant calcein AM, which is cleaved by esterases in live cells to yield cytoplasmic green fluorescence, and dead cells are labeled red using a membrane-impermeant ethidium homodimer-1, which passes through the compromised membranes of dead cells to label nucleic acids with red fluorescence. […] This reduction may be particularly significant in assays on primary cells, because primary cells typically are difficult to obtain and maintain.

PPARγ = target: T1, PPARγ (Homo sapiens, UniProt P37231); test: PPARγ activity assay based on PEPCK expression in primary pre-adipocytes on coded carriers; conditions: four donor samples (visceral and subcutaneous pre-adipocytes), shared fluid volume, four days
T1 sequence (P37231 1-505): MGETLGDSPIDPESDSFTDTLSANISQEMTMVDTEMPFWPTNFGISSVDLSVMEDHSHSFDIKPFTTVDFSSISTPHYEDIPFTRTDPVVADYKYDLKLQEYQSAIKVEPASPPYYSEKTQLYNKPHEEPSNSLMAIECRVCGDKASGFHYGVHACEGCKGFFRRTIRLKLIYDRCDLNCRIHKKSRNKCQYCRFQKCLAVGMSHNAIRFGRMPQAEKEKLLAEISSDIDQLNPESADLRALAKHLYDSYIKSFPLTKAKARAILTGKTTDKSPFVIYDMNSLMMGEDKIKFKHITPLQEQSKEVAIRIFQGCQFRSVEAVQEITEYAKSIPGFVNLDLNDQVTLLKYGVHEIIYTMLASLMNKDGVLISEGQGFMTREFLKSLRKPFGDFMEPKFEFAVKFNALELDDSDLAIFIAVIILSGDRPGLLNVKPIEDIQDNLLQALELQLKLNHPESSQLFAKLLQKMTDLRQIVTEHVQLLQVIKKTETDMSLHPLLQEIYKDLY
Excerpt: This differentiation may be visualized readily and scored by staining lipid droplets that accumulate in the cytoplasm of the adipocytes during and/or after their differentiation. Furthermore, this adipocyte differentiation and/or activation of PPARγ may be followed by measuring the expression levels (RNA and/or protein) of PPARγ target genes (direct or indirect targets), such as PEPCK (phosphoenolpyruvate carboxykinsae) and/or FABP4 (fatty acid binding protein 4), among others.
Staining was via indirect immunofluorescence. Cells were counterstained with a nuclear dye (Hoechst) for data normalization, here and in other assays. […] Each sample of primary cells corresponds to pre-adipocytes isolated from visceral tissue (samples starting with the letter “V”) or isolated from subcutaneous tissue (samples starting with the letters “SC”) and were supplied by Cambrex. […] Each sample was connected to a distinct class of coded carriers (having a distinct code) to permit identification of the sample after combining the different classes of carrier and samples in a shared volume. […] Lipid accumulation and PEPCK expression were then measured with the samples still disposed in the same microplate wells. […]

CC[C@@]1(O)C(=O)OCc2c1cc1n(c2=O)Cc2cc3ccccc3nc2-1 [camptothecin]
S-phase index as a measure of cell proliferation [1]: S-phase index generally decreases with increasing camptothecin concentration

CN[C@@H]1C[C@H]2O[C@@](C)([C@@H]1OC)n1c3ccccc3c3c4c(c5c6ccccc6n2c5c31)C(=O)NC4 [staurosporine]
death index (fraction of dead cells) (HRPTE cells): generally increases with increasing staurosporine concentration

COc1ccc2c(c1)c(CC(=O)O)c(C)n2C(=O)c1ccc(Cl)cc1 [Indomethacin, indomethacin]
induction of PEPCK expression as a measure of PPARγ activity (PPARγ): relatively strong induction
